These compounds were tested on breast cancer cell line MX-1 (assay: MX-1 cell line proliferation assay (3-day, Cell Titer Glo)). Settings: Homo sapiens, MX1, MX-1 cells, 72 hours, read-out: Cellular proliferation: EC50.
Type: cell-based
Description: The impact of compounds of the Examples on cancer cell proliferation was determined using the breast cancer cell line MX-1 (ATCC) in a 3-day proliferation assay. MX-1 cells were maintained in RPMI supplemented with 10% FBS at 37° C. and an atmosphere of 5% CO2. For compound testing, MX-1 cells were plated in 96-well black bottom plates at a density of 5000 cells/well in 90 μL of culture media and incubated at 37° overnight to allow cell adhesion and spreading. Compound dilution series were prepared in DMSO via a 3-fold serial dilution from 3 mM to […]. The DMSO dilution series were then diluted 1:100 in phosphate buffered saline, and 10 μL of the resulted solution were added to the appropriate wells of the MX-1 cell plate. The final compound concentrations in the wells were 3, 1, 0.3, 0.1, 0.03, 0.01, 0.003, 0.001, 0.0003, 0.0001, and 0.00003 μM.
Luminescence readings from the Cell Titer Glo assay were normalized to the DMSO treated cells and analyzed using the GraphPad Prism software with sigmoidal curve fitting to obtain EC50s. The minimum significant ratio (MSR) was determined to evaluate assay reproducibility (Eastwood et al., (2006) J Biomol Screen, 11: 253-261). The overall MSR was determined to be 2.1 and a moving MSR (last six run MSR overtime) has been <2. The EC50 values are reported in Table 1 for the indicated compounds.

Compound	EC50 [nM]
CCOc1cc(=O)n(C)cc1-c1cc(NC(=O)Cc2ccc(-c3ccccc3)cc2)ccc1Oc1ccc(F)cc1F [Example 42, 2-(biphenyl-4-yl)-N-[4-(2,4-difluorophenoxy)-3-(4-ethoxy-1-methyl-6-oxo-1,6-dihydropyridin-3-yl)phenyl]acetamide]	678
CCOc1cc(=O)n(C)cc1-c1cc(NC(=O)Cc2ccccc2OC)ccc1Oc1ccc(F)cc1F [Example 46, N-[4-(2,4-difluorophenoxy)-3-(4-ethoxy-1-methyl-6-oxo-1,6-dihydropyridin-3-yl)phenyl]-2-(2-methoxyphenyl)acetamide]	449
CCOc1cc(=O)n(C)cc1-c1cc(NCc2ccc(F)cc2)ccc1Oc1ccc(F)cc1F [Example 64, 5-{2-(2,4-difluorophenoxy)-5-[(4-fluorobenzyl)amino]phenyl}-4-ethoxy-1-methylpyridin-2(1H)-one]	508
CCOc1cc(=O)n(C)cc1-c1cc(N(CC2CC2)S(=O)(=O)CC)ccc1Oc1ccc(F)cc1F [Example 72, N-(cyclopropylmethyl)-N-[4-(2,4-difluorophenoxy)-3-(4-ethoxy-1-methyl-6-oxo-1,6-dihydropyridin-3-yl)phenyl]ethanesulfonamide]	233
CCOc1cc(=O)n(C)cc1-c1cc(N(Cc2ccccc2)S(=O)(=O)CC)ccc1Oc1ccc(F)cc1F [Example 73, N-benzyl-N-[4-(2,4-difluorophenoxy)-3-(4-ethoxy-1-methyl-6-oxo-1,6-dihydropyridin-3-yl)phenyl]ethanesulfonamide]	> 1000
CCOc1cc(=O)n(C)cc1-c1cc(N(Cc2ccccc2)S(=O)(=O)Cc2ccccc2)ccc1Oc1ccc(F)cc1F [Example 77, N-benzyl-N-[4-(2,4-difluorophenoxy)-3-(4-ethoxy-1-methyl-6-oxo-1,6-dihydropyridin-3-yl)phenyl]-1-phenylmethanesulfonamide]	> 1000
CCOc1cc(=O)n(C)cc1-c1cc(N(Cc2ccccc2Cl)S(=O)(=O)Cc2ccccc2)ccc1Oc1ccc(F)cc1F [Example 78, N-(2-chlorobenzyl)-N-[4-(2,4-difluorophenoxy)-3-(4-ethoxy-1-methyl-6-oxo-1,6-dihydropyridin-3-yl)phenyl]-1-phenylmethanesulfonamide]	> 1000
CCOc1cc(=O)n(C)cc1-c1cc(N(CCc2ccccc2Cl)S(=O)(=O)CC)ccc1Oc1ccc(F)cc1F [Example 80, N-[2-(2-chlorophenyl)ethyl]-N-[4-(2,4-difluorophenoxy)-3-(4-ethoxy-1-methyl-6-oxo-1,6-dihydropyridin-3-yl)phenyl]ethanesulfonamide]	> 1000
CCOc1cc(=O)n(C)cc1-c1cc(NC(=O)Cn2ccc(-c3ccccc3)n2)ccc1Oc1ccc(F)cc1F [Example 81, N-[4-(2,4-difluorophenoxy)-3-(4-ethoxy-1-methyl-6-oxo-1,6-dihydropyridin-3-yl)phenyl]-2-(3-phenyl-1H-pyrazol-1-yl)acetamide]	> 1000
CCOc1cc(=O)n(C)cc1-c1cc(NC(=O)Cc2cc(Cl)ccc2F)ccc1Oc1ccc(F)cc1F [Example 82, 2-(5-chloro-2-fluorophenyl)-N-[4-(2,4-difluorophenoxy)-3-(4-ethoxy-1-methyl-6-oxo-1,6-dihydropyridin-3-yl)phenyl]acetamide]	> 1000
CCOc1cc(=O)n(C)cc1-c1cc(NC(=O)Cc2csc(C)n2)ccc1Oc1ccc(F)cc1F [Example 83, N-[4-(2,4-difluorophenoxy)-3-(4-ethoxy-1-methyl-6-oxo-1,6-dihydropyridin-3-yl)phenyl]-2-(2-methyl-1,3-thiazol-4-yl)acetamide]	304
CCOc1cc(=O)n(C)cc1-c1cc(N(Cc2cncnc2)S(=O)(=O)CC)ccc1Oc1ccc(F)cc1F [Example 93, N-[4-(2,4-difluorophenoxy)-3-(4-ethoxy-1-methyl-6-oxo-1,6-dihydropyridin-3-yl)phenyl]-N-(pyrimidin-5-ylmethyl)ethanesulfonamide]	> 1000
CCOc1cc(=O)n(C)cc1-c1cc(N(Cc2cnccn2)S(=O)(=O)Cc2ccccc2)ccc1Oc1ccc(F)cc1F [Example 96, N-[4-(2,4-difluorophenoxy)-3-(4-ethoxy-1-methyl-6-oxo-1,6-dihydropyridin-3-yl)phenyl]-1-phenyl-N-(pyrazin-2-ylmethyl)methanesulfonamide]	> 1000

More lines, now with the values ahead:

EC50 [nM]	Compound
981	CCOc1cc(=O)n(C)cc1-c1cc(NC(=O)Cc2ccc(OCc3ccccc3)cc2)ccc1Oc1ccc(F)cc1F [Example 45, 2-[4-(benzyloxy)phenyl]-N-[4-(2,4-difluorophenoxy)-3-(4-ethoxy-1-methyl-6-oxo-1,6-dihydropyridin-3-yl)phenyl]acetamide]
712	CCOc1cc(=O)n(C)cc1-c1cc(NCc2ccccc2C#N)ccc1Oc1ccc(F)cc1F [Example 57, 2-({[4-(2,4-difluorophenoxy)-3-(4-ethoxy-1-methyl-6-oxo-1,6-dihydropyridin-3-yl)phenyl]amino}methyl)benzonitrile]
> 1000	CCOc1cc(=O)n(C)cc1-c1cc(N(CC2CC2)S(=O)(=O)Cc2cc(F)ccc2Cl)ccc1Oc1ccc(F)cc1F [Example 66, 1-(2-chloro-5-fluorophenyl)-N-(cyclopropylmethyl)-N-[4-(2,4-difluorophenoxy)-3-(4-ethoxy-1-methyl-6-oxo-1,6-dihydropyridin-3-yl)phenyl]methanesulfonamide]
> 1000	CCOc1cc(=O)n(C)cc1-c1cc(N(CC2CC2)C(=O)Cc2cc(F)ccc2Cl)ccc1Oc1ccc(F)cc1F [Example 67, 2-(2-chloro-5-fluorophenyl)-N-(cyclopropylmethyl)-N-[4-(2,4-difluorophenoxy)-3-(4-ethoxy-1-methyl-6-oxo-1,6-dihydropyridin-3-yl)phenyl]acetamide]
> 1000	CCOc1cc(=O)n(C)cc1-c1cc(NC(=O)C(C)c2cc(F)ccc2Cl)ccc1Oc1ccc(F)cc1F (stereo not drawn) [Example 70, 2-(2-chloro-5-fluorophenyl)-N-[4-(2,4-difluorophenoxy)-3-(4-ethoxy-1-methyl-6-oxo-1,6-dihydropyridin-3-yl)phenyl]propanamide]
> 1000	CCOc1cc(=O)n(C)cc1-c1cc(N(C)C(=O)Cc2cc(F)ccc2Cl)ccc1Oc1ccc(F)cc1F [Example 71, 2-(2-chloro-5-fluorophenyl)-N-[4-(2,4-difluorophenoxy)-3-(4-ethoxy-1-methyl-6-oxo-1,6-dihydropyridin-3-yl)phenyl]-N-methylacetamide]
464	CCOc1cc(=O)n(C)cc1-c1cc(N(Cc2ccccc2Cl)S(=O)(=O)CC)ccc1Oc1ccc(F)cc1F [Example 74, N-(2-chlorobenzyl)-N-[4-(2,4-difluorophenoxy)-3-(4-ethoxy-1-methyl-6-oxo-1,6-dihydropyridin-3-yl)phenyl]ethanesulfonamide]
614	CCOc1cc(=O)n(C)cc1-c1cc(N(CCc2ccccc2)S(=O)(=O)CC)ccc1Oc1ccc(F)cc1F [Example 75, N-[4-(2,4-difluorophenoxy)-3-(4-ethoxy-1-methyl-6-oxo-1,6-dihydropyridin-3-yl)phenyl]-N-(2-phenylethyl)ethanesulfonamide]
> 1000	CCOc1cc(=O)n(C)cc1-c1cc(N(CC2CC2)S(=O)(=O)Cc2ccccc2)ccc1Oc1ccc(F)cc1F [Example 76, N-(cyclopropylmethyl)-N-[4-(2,4-difluorophenoxy)-3-(4-ethoxy-1-methyl-6-oxo-1,6-dihydropyridin-3-yl)phenyl]-1-phenylmethanesulfonamide]
> 1000	CCOc1cc(=O)n(C)cc1-c1cc(N(CCc2ccccc2)S(=O)(=O)Cc2ccccc2)ccc1Oc1ccc(F)cc1F [Example 79, N-[4-(2,4-difluorophenoxy)-3-(4-ethoxy-1-methyl-6-oxo-1,6-dihydropyridin-3-yl)phenyl]-1-phenyl-N-(2-phenylethyl)methanesulfonamide]
> 1000	CCOc1cc(=O)n(C)cc1-c1cc(N(Cc2nccs2)S(=O)(=O)Cc2ccccc2)ccc1Oc1ccc(F)cc1F [Example 90, N-[4-(2,4-difluorophenoxy)-3-(4-ethoxy-1-methyl-6-oxo-1,6-dihydropyridin-3-yl)phenyl]-1-phenyl-N-(1,3-thiazol-2-ylmethyl)methanesulfonamide]
505	CCOc1cc(=O)n(C)cc1-c1cc(N(Cc2cccnc2)S(=O)(=O)CC)ccc1Oc1ccc(F)cc1F [Example 91, N-[4-(2,4-difluorophenoxy)-3-(4-ethoxy-1-methyl-6-oxo-1,6-dihydropyridin-3-yl)phenyl]-N-(pyridin-3-ylmethyl)ethanesulfonamide]
> 1000	CCOc1cc(=O)n(C)cc1-c1cc(N(Cc2cccnc2)S(=O)(=O)Cc2ccccc2)ccc1Oc1ccc(F)cc1F [Example 92, N-[4-(2,4-difluorophenoxy)-3-(4-ethoxy-1-methyl-6-oxo-1,6-dihydropyridin-3-yl)phenyl]-1-phenyl-N-(pyridin-3-ylmethyl)methanesulfonamide]
> 1000	CCOc1cc(=O)n(C)cc1-c1cc(N(Cc2cnccn2)S(=O)(=O)CC)ccc1Oc1ccc(F)cc1F [Example 95, N-[4-(2,4-difluorophenoxy)-3-(4-ethoxy-1-methyl-6-oxo-1,6-dihydropyridin-3-yl)phenyl]-N-(pyrazin-2-ylmethyl)ethanesulfonamide]

Source: patent publication US9428514B2, “Bromodomain inhibitors” (AbbVie Inc., priority 2013, dated 2016)
